According to patent US20170072012A1, “USE OF GSMTX4 TO REDUCE ISCHEMIA REPERFUSION INJURY” (priority 2014, published 2017):

What was measured:
[1] = test system: ischemic reperfusion injury in mouse heart; assay type: in vivo, C57B1/6J mice; conditions: 0.4 mg/kg tail vein 5 min before reperfusion; 4 h reperfusion; vehicle 16.5±1.2%; not statistically significant
Description: Acute GsMTx4-D treatment: All animal protocols in this study were approved by the Institutional Animal Care and Use Committee of the University at Buffalo-State University of New York. C57B1/6J mice were anesthetized with 80 mg/kg of sodium pentobarbital (Sigma, St. Louis, Mo.) via intraperitoneal injection (IP), intubated and ventilated with a respirator (Harvard apparatus, Holliston, Mass., USA) 17. Upon absence of a pedal reflex, surgery was performed under a stereomicroscope. Core body temperature was maintained at 37° C. with a heating pad. After a left lateral thoracotomy, the left anterior descending coronary artery (LAD) was occluded just underneath the left atrium for 20 min with an 8-0 nylon suture. […] A small piece of gauze was used to prevent arterial injury. After 20 min the ligature was removed and the tissue was reperfused for up to 4 h before euthanizing. Three different doses of GsMTx4-D (0.1, 1, 10 mg/kg), verapamil (0.4 mg/kg) or vehicle (saline 50 μL) were administered via tail vein injection 5 min before reperfusion (during induced ischemia). ECGs confirmed the hallmark ischemic ST segment elevation during coronary occlusion (AD Instruments, Colorado Springs, CO, USA). Each group included 5 independent experiments. At the conclusion of the study, mice were euthanized by IP injection of 270 mg/kg pentobarbital. GsMTx4-D pretreatment: To evaluate the effect of GsMTx4-D pretreatment, GsMTx4-D (50 mg/kg) or vehicle (saline 50 μL) were administered via IP injection once daily for 2 days prior to surgery. Ischemia was then elicited with the same 20 min coronary occlusion followed by 24 h reperfusion. Following reperfusion, the chest was closed in layers. A drop of lidocaine was put on the suture site and the mouse was slowly weaned off the ventilator when they resumed spontaneous breathing. The mouse was returned to its cage and kept warm and medicated for pain (buprenorphine). Each group included 5 independent experiments.
To measure infarct size, hearts were harvested and excised for dual staining at the conclusion of reperfusion. The non-necrotic tissue in the ischemic region was stained red with 2,3,5- triphenyltetrazolium (TTC) and non-ischemic regions were stained blue with Evans blue. The hearts were fixed and sectioned into 1 mm slices, photographed with a Lexica MZ95 microscope and analyzed with NIH ImageJ software (http://imagej.nih.gov/ij/) 19. The infarct size was calculated as the ratio of the percentage of myocardial necrosis to the ischemic Area At Risk (AAR).
To test whether GsMTx4-D protected the heart against reperfusion injury, we first tested three different doses of the peptide. The positive control was verapamil, a voltage-gated calcium channel inhibitor with established cardioprotective effects on IRI. C57B1/6 mice were subjected to 20 min occlusion of the LAD followed by 4 hours of reperfusion. Three different concentrations of GsMTx4-D (0.1, 1 and 10 mg/kg), verapamil (0.4 mg/kg), or vehicle (saline) were administered through tail vein injection 5 min before reperfusion. […] At the conclusion of reperfusion, the hearts were stained with TTC and Evans Blue (FIG. 2A). […] The verapamil group also had lower infarction size (14.0±0.4%), but the difference wasn't statistically significant. […] To evaluate whether pretreatment with GsMTx4-D could also protect the heart from I/R injury, GsMTx4-D (50 mg/kg) or vehicle (saline 50 μL) were administered daily via IP injection, for 2 days prior to I/R surgery. As before, ischemia was induced from 20 min LAD occlusion, but reperfusion was allowed to continue for 24 hrs. The chest was closed in layers, and animals were weaned off the ventilator when they resumed spontaneous breathing. […] The ratios of AAR to total myocardial area between the two groups were equal as determined by TTC and Evans Blue staining (FIG. 3A and B). […]

[2] = test system: I/R induced arrhythmias in mouse heart; test: Heart rhythm analysis (ECG) during reperfusion, I/R induced arrhythmia; assay type: in vivo, C57B1/6J mice; conditions: 0.4 mg/kg IV 5 min before reperfusion; vehicle 14.9±4.5; not significantly different
Description: During reperfusion we continuously recorded ECGs, from which mean heart rate, PR, QRS, and QT intervals were derived for each animal. We evaluated the incidence of arrhythmias by counting the incidences of arrhythmias including ventricular and supraventricular premature beats by summing the number of episodes based on limb lead recordings for 15 min after reperfusion. Ventricular premature beats are considered more severe. Each group contained 5 to 7 independent experiments (vehicle n=7, verapamil n=6, GsMTx4-D 0.1mg/kg n=5, 1 mg/kg n=6 and 10 mg/kg n=5).
Heart rate and rhythm were monitored by ECG to confirm the hallmark ischemic ST-segment elevation during coronary occlusion, and the gradually increasing inversion of the T-wave during reperfusion (FIG. 4A). Since generation of arrhythmias is a good indicator of the level of I/R damage, we counted ventricular and supraventricular premature beats occurring within 15 min of reperfusion (FIG. 4B). No ventricular tachycardia was observed during 20 min ischemia and 15 min reperfusion in the mouse heart. […] Considering that ventricular premature beats are indicative of more severe damage, the incidence of this specific arrhythmia was analyzed separately (FIG. 4 D). […] There was no difference in mean heart rate before ischemia (FIG. 4E). […] There was no difference in PR, QRS or QT intervals after treatment in all groups (data not shown).

SMILES: COc1ccc(CCN(C)CCCC(C#N)(c2ccc(OC)c(OC)c2)C(C)C)cc1OC (centres unmarked) [verapamil, reference compound]
- infarction size (infarct area / AAR) [1]: 14.0±0.4%
- total incidence of arrhythmias (ventricular and supraventricular premature beats) [2]: 5.7±1.2 incidence/15 min reperfusion
